Measurements reported in patent US8175815B2, “Method for assessing absorption properties of low solubility compounds” (F. Hoffmann-La Roche AG, priority 2006, dated 2012).
In brackets after ≈: the same amount, converted by molar mass. Several values for one entry are separate records, joined by “and”; a condition that tells them apart may be missing. Identical values can stand only once. Like-named read-outs stand apart in the source and are kept apart here.

Tests used:
[1] = PAMPA, 30 min, 50 μM
[2] = PAMPA
physchem [3] = assay: physchem
[4] = Double-Sink PAMPA permeability with and without excipients
[5] = equilibrium solubility-pH, direct-UV microtitre plate (μSOL Evolution) with and without excipients; conditions: for pKa at 18 h / solubility at 18 h: aqueous universal buffer (pION); for pKa at 18 h: saturated drug suspension, pKa^APP ± SD; for solubility at 18 h: 25 °C, kinetic from dmso stock
[6] = 18 h
[7] = dogs, gel caps, 200 mg/kg; cited from earlier work
physchem [8] = assay: physchem; remark: listed apart in the source
[9] = cited from earlier work
[10] = apparent/true molecular weight, 40 μm ABL assumed, 0 mM NaTC (first value)
[11] = apparent ionization constant in saturated solution, excipient none
[12] = apparent ionization constant, excipient 3 mM NaTC
[13] = apparent ionization constant, excipient 15 mM NaTC
[14] = apparent ionization constant, excipient 0.1M KCl
[15] = apparent ionization constant, excipient 0.2M KCl
[16] = apparent ionization constant, excipient 1% HP-b-CD
[17] = apparent ionization constant, excipient 1% NMP
[18] = apparent ionization constant, excipient 1% PEG400
[19] = apparent ionization constant, excipient 1% PG
[20] = apparent ionization constant, excipient 5% PEG400
[21] = apparent ionization constant, excipient 5% PG
[22] = apparent ionization constant, excipient […] HP-b-CD
[23] = apparent ionization constant, excipient […] NMP
[24] = apparent ionization constant, excipient […] PEG400
[25] = apparent ionization constant, excipient […] PG

OCCN(CCO)c1nc(N2CCCCC2)c2nc(N(CCO)CCO)nc(N3CCCCC3)c2n1 [dipyridamole]
PABL 0 mM NaTC [1]: 941 | PABL 3 mM NaTC [1]: 922 | PABL 15 mM NaTC [1]: 47 | net flux effect due to 1% HP-β-CD ([2]; pH 5): the flux remains unaffected by the excipient | pKa (physchem [3]): 6.22 ± 0.15 | MW*/MW ([4]; 3 mM NaTC (second value)): 1 | MW*/MW ([4]; 15 mM NaTC (third value)): 1100 | MW*/MW [4, 10]: ~1 | pKa at 18 h [5, 11]: 5.8 ± 0.1 | pKa at 18 h [5, 12]: 5.6 ± 0.1 | pKa at 18 h [5, 13]: 5.2 ± 0.1 | pKa at 18 h [5, 14]: 6 ± 0.1 | pKa at 18 h [5, 15]: 5.9 ± 0.1 | pKa at 18 h [5, 16]: 5.6 ± 0.1 | pKa at 18 h [5, 17]: 5.7 ± 0.1 | pKa at 18 h [5, 18]: 5.9 ± 0.2 | pKa at 18 h [5, 19]: 5.8 ± 0.1 | pKa at 18 h [5, 20]: 6.2 ± 0.1 | pKa at 18 h [5, 21]: 5.8 ± 0.1 | pKa at 18 h [5, 22]: 5.8 ± 0.1 | pKa at 18 h [5, 23]: 5.8 ± 0.1 | pKa at 18 h [5, 24]: 6.8 ± 0.1 | pKa at 18 h [5, 25]: 5.8 ± 0.1 | So ± SD ([5]; excipient 3 mM NaTC): 5.3 ± 0.9 µg/mL | So^APP ± SD ([5]; excipient 3 mM NaTC): 24 ± 2 µg/mL | So ± SD ([5]; excipient 15 mM NaTC): 9.9 ± 1.7 µg/mL | So^APP ± SD ([5]; excipient 15 mM NaTC): 110 µg/mL and 110 ± 5 µg/mL | So ± SD ([5]; excipient 0.1M KCl): 3.3 ± 0.8 µg/mL | So^APP ± SD ([5]; excipient 0.1M KCl): 5.2 ± 0.8 µg/mL | So ± SD ([5]; excipient 0.2M KCl): 3.1 ± 0.7 µg/mL | So^APP ± SD ([5]; excipient 0.2M KCl): 5.8 ± 0.9 µg/mL | So ± SD ([5]; excipient 1% HP-b-CD): 3.2 ± 0.7 µg/mL | So^APP ± SD ([5]; excipient 1% HP-b-CD): 15 ± 1 µg/mL | So ± SD ([5]; excipient 1% NMP): 2.4 ± 0.7 µg/mL | So^APP ± SD ([5]; excipient 1% NMP): 8.1 ± 1.5 µg/mL | So ± SD ([5]; excipient 1% PEG400): 5.0 ± 1.9 µg/mL | So^APP ± SD ([5]; excipient 1% PEG400): 11 ± 3 µg/mL | So ± SD ([5]; excipient 1% PG): 2.7 ± 0.2 µg/mL | So^APP ± SD ([5]; excipient 1% PG): 6.5 ± 0.3 µg/mL | So ± SD ([5]; excipient 5% PEG400): 13.7 ± 2.4 µg/mL | So^APP ± SD ([5]; excipient 5% PEG400): 14 ± 1 µg/mL | So ± SD ([5]; excipient 5% PG): 3.9 ± 0.8 µg/mL | So^APP ± SD ([5]; excipient 5% PG): 9.8 ± 1.3 µg/mL | So ± SD ([5]; excipient […] HP-b-CD): 2.8 ± 0.7 µg/mL | So^APP ± SD ([5]; excipient […] HP-b-CD): 7.1 ± 0.8 µg/mL | So ± SD ([5]; excipient […] NMP): 2.2 ± 0.6 µg/mL | So^APP ± SD ([5]; excipient […] NMP): 5.9 ± 1.1 µg/mL | So^APP ± SD ([5]; excipient […] PEG400): 4.6 ± 1.2 µg/mL | So ± SD ([5]; excipient […] PG): 2.1 ± 0.3 µg/mL | So^APP ± SD ([5]; excipient […] PG): 5.8 ± 0.5 µg/mL | So ± SD ([5]; excipient none): 2.3 ± 0.7 µg/mL | So^APP ± SD ([5]; excipient none): 6.2 ± 1.1 µg/mL and 6.2 µg/mL

COc1ccc(Cl)cc1C(=O)NCCc1ccc(S(=O)(=O)NC(=O)NC2CCCCC2)cc1 [glybenclamide]
n ± SD [6]: 1.1 ± 0.1 | average flux gain factor ([2]; pH 5): 3.1 | flux increase factor ([2]; pH 5): 20.1 | flux increase factor ([2]; pH 6.2): 4.3 | flux decrease factor ([2]; pH 7.4): 3 | Cmax +HP-β-CD [7]: 610 ng/mL | Cmax no excip. [7]: 83.9 ng/mL | Tmax +HP-β-CD [7]: 2.5 h | Tmax no excip. [7]: 4.5 h | pKa (physchem [3]): 5.75 ± 0.15 | pKa at 18 h (physchem [8]; negative shift in the apparent pKa): 1.6 | pKa at 18 h (physchem [8]; pKa^APP ± SD): 4.6 ± 0.1

Cc1cccc(Nc2ccccc2C(=O)O)c1C [mefenamic acid]
PABL 0 mM NaTC [1]: 782 | PABL 3 mM NaTC [1]: 909 | PABL 15 mM NaTC [1]: 795 | refined ABL thickness [1]: exceeding 75 μm | net flux effect due to 1% HP-β-CD ([2]; pH 5): In acid solutions, flux is helped by 1% HP-β-CD, but in neutral solutions, there is a net loss | pKa (physchem [3]): 4.39 ± 0.09 | MW*/MW ([4]; 3 mM NaTC (second value)): 3 | MW*/MW ([4]; 15 mM NaTC (third value)): 4 | MW*/MW [4, 10]: 4 | solubility at 18 h ([5]; aqueous buffer): 0.021 ± 0.005 µg/mL (≈ 0.087 µM) | solubility at 18 h ([5]; aqueous with cosolvent or surfactant or cyclodextrin): < 3 µg/mL | pKa at 18 h [5, 11]: 4.3 ± 0.3 | pKa at 18 h [5, 12]: 5.8 ± 0.1 | pKa at 18 h [5, 13]: 5.7 ± 0.1 | pKa at 18 h [5, 14]: 4.4 ± 0.4 | pKa at 18 h [5, 15]: 4.3 | pKa at 18 h [5, 16]: 5.2 ± 0.1 | pKa at 18 h [5, 17]: 4.4 ± 0.2 | pKa at 18 h [5, 18]: 4.5 | pKa at 18 h [5, 19]: 4 ± 0.3 | pKa at 18 h [5, 20]: 4.5 ± 1.1 | pKa at 18 h [5, 21]: 4 | pKa at 18 h [5, 22]: 4.6 ± 0.1 | pKa at 18 h [5, 23]: 4.1 ± 0.6 | pKa at 18 h [5, 24]: 4.5 ± 0.2 | pKa at 18 h [5, 25]: 4.1 ± 0.3 | So ± SD ([5]; excipient 3 mM NaTC): 0.11 ± 0.03 µg/mL | So^APP ± SD ([5]; excipient 3 mM NaTC): 1.9 ± 0.4 µg/mL | So ± SD ([5]; excipient 15 mM NaTC): 0.10 ± 0.03 µg/mL | So^APP ± SD ([5]; excipient 15 mM NaTC): 1.4 ± 0.3 µg/mL | So^APP ± SD ([5]; excipient 0.1M KCl): 0.023 ± 0.005 µg/mL | So^APP ± SD ([5]; excipient 0.2M KCl): 0.021 µg/mL | So ± SD ([5]; excipient 1% HP-b-CD): 0.61 µg/mL | So^APP ± SD ([5]; excipient 1% HP-b-CD): 2.9 ± 0.5 µg/mL | So^APP ± SD ([5]; excipient 1% NMP): 0.062 ± 0.010 µg/mL | So^APP ± SD ([5]; excipient 1% PEG400): 0.021 µg/mL | So^APP ± SD ([5]; excipient 1% PG): 0.021 µg/mL | So^APP ± SD ([5]; excipient 5% PEG400): 0.028 µg/mL | So^APP ± SD ([5]; excipient 5% PG): 0.056 µg/mL | So ± SD ([5]; excipient […] HP-b-CD): 0.28 ± 0.02 µg/mL | So^APP ± SD ([5]; excipient […] HP-b-CD): 0.34 ± 0.02 µg/mL | So^APP ± SD ([5]; excipient […] NMP): 0.019 ± 0.009 µg/mL | So^APP ± SD ([5]; excipient […] PEG400): 0.004 ± 0.002 µg/mL | So^APP ± SD ([5]; excipient […] PG): 0.021 µg/mL | intrinsic solubility in excipient free buffer ([5]; excipient free): 0.021 µg/mL | So^APP ± SD ([5]; excipient none): 0.021 ± 0.005 µg/mL | salt limit (sdiff 3-4 approximation) ([5]; three orders of magnitude above excipient-free intrinsic solubility): 21 µg/mL

hydroxypropyl-β-cyclodextrin [HP-β-CD]
solubility [9]: 450000 µg/mL
